We go through 19 compounds from patent US10307413B2, “Tetrahydro- and dihydro-isoquinoline PRMT5 inhibitors and uses thereof” (Epizyme, Inc., priority 2013, dated 2019).

Like-named read-outs stand apart in the source and are kept apart here.

One assay has as its target PRMT5/MEP50 (Homo sapiens (Human), UniProt O14744). Kind of assay: PRMT5 Biochemical Assay (PRMT5/MEP50 enzyme assay on peptide substrate, 3H-SAM Flashplate). Conditions: PRMT5 biochemical assay. In outline: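 Radiometric methylation of a biotin-tagged H4(1-15) peptide by human PRMT5/MEP50 from baculovirus/Sf9, with ³H-SAM incorporation read on streptavidin Flashplates. Buffer: Bicine pH 7.6, TCEP, BSG, Tween20; compound preincubated 30 min at 25 °C; stopped with 600 µM final unlabeled SAM. DMSO and SAH controls; IC50 from fitted % inhibition.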

Assay [1] concerns symmetric di-methyl arginine in Z-138 cells. Kind of assay: Z-138 Methylation Assay (In Cell Western for symmetric di-methyl arginine and DNA content). The assay is classed as cell-based. Conditions: Homo sapiens, In Cell Western methylation, read-out: ICW EC50. In outline: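 Z-138 cells (50,000 cells/mL) treated with compound 96 h at 37 °C, then fixed and stained for symmetric di-methyl arginine (800 nm) with DRAQ5 DNA counterstain (700 nm) on Licor Odyssey.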

The test system of the next assay is Z-138 cell line. Description: Z-138 Proliferation Assay (Cell Titer Glo, 5 days). The assay is classed as cell-based. Conditions: Homo sapiens, read-out: Proliferation EC50. In outline: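 Z-138 cells exposed 5 days at 37 °C, 5% CO2 to nine-point 3-fold dilutions (final top 20 μM, 0.2% DMSO), in triplicate. Viability read as ATP by CellTiter-Glo luminescence; IC50 from 4-parameter fit of normalized dose-response curves.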
(In general: In ATP-based viability assays light output follows the ATP content of the culture.)

The mark [2] stands for this setting: 120 h, Z-138 cells, 5 days, Cell Titer Glo.

Sequence of PRMT5/MEP50 (O14744 other isoform, or with tags, fused parts or gaps): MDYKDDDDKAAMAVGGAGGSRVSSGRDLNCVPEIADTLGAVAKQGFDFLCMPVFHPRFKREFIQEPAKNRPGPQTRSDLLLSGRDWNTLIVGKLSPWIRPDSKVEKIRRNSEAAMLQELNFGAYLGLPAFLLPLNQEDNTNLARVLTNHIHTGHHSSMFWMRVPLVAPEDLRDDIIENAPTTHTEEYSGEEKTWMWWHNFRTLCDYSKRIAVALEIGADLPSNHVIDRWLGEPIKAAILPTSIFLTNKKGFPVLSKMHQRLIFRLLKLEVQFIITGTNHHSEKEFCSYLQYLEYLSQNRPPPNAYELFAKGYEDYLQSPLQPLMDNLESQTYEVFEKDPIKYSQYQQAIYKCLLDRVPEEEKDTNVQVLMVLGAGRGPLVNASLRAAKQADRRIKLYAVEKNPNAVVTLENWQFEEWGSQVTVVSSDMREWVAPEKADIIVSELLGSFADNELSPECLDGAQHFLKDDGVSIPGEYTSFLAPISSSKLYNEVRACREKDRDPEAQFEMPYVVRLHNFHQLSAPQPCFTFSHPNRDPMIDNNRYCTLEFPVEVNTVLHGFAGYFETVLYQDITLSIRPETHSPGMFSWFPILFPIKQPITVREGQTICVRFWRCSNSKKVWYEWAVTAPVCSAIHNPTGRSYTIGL
Sequence of PRMT5/MEP50 (Q9BQA1 other isoform, or with tags, fused parts or gaps partner): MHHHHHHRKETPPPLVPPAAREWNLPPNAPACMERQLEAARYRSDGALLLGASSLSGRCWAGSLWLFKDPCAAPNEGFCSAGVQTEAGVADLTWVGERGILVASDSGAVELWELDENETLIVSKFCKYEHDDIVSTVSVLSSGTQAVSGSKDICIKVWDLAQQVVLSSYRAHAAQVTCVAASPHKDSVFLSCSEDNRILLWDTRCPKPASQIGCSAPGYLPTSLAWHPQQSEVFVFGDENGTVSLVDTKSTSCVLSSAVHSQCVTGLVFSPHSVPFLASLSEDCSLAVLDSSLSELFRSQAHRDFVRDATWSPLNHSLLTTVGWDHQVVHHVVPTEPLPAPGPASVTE

In the case of `O=C(NC[C@H](O)CN1CCc2ccccc2C1)c1cc(N[C@H]2C[C@@H](N3CCOCC3)C2)ncn1` [Compound 637], the IC50 on PRMT5/MEP50 is less than 100 nM. Further, the EC50 in assay [1] was less than 100 nM; in the assay with Z-138 cell line (setting [2]) it was 101 to 1000 nM.
For the compound `O=C(NC[C@H](O)CN1CCc2ccccc2C1)c1cc(NC2CCN(C(=O)C3CC3)CC2)ccn1` [Compound 638], the IC50 at PRMT5/MEP50 is less than 100 nM. Also, the EC50 (in assay [1]; in the assay with Z-138 cell line (setting [2])) was less than 100 nM in each case.
Regarding `CSCCN1CCC(Nc2cc(C(=O)NC[C@H](O)CN3CCc4ccccc4C3)ncn2)CC1` [Compound 639], the IC50 on PRMT5/MEP50 was less than 100 nM. Moreover, the EC50 in assay [1] is less than 100 nM; in the assay with Z-138 cell line (setting [2]), 1000 to 10000 nM.
For `CCS(=O)(=O)CCN1CCC(Nc2cc(C(=O)NC[C@H](O)CN3CCc4ccccc4C3)ncn2)CC1` [Compound 640], the IC50 at PRMT5/MEP50 was less than 100 nM. Further, the EC50 is less than 100 nM in assay [1] and 101 to 1000 nM in the assay with Z-138 cell line (Z-138, 120 h).
In the case of `CCS(=O)(=O)CCNc1cc(C(=O)NC[C@H](O)CN2CCc3ccccc3C2)ncn1` [Compound 641], the half-inhibitory concentration (IC50) on PRMT5/MEP50 is less than 100 nM. Besides, the figures for the EC50 (in assay [1]; in the assay on Z-138 cell line (setting [2])) were less than 100 nM and 1000 to 10000 nM, respectively.
`CC(=O)N1CC[C@@H](Nc2cc(C(=O)NC[C@H](O)CN3CCc4ccccc4C3)ncn2)C1` [Compound 642]: the IC50 on PRMT5/MEP50 is less than 100 nM. In addition, the EC50 in assay [1] is less than 100 nM; with Z-138 cell line (setting [2]) it was 101 to 1000 nM.
`CC(O)(CNC(=O)c1cc(NC2COC2)ncn1)CN1CCc2ccccc2C1` (stereo not drawn) [Compound 646]: the half-maximal inhibitory concentration (IC50) on PRMT5/MEP50 lay within 101 to 1000 nM. Also, the results for the EC50 (in assay [1]; in the assay with Z-138 cell line (setting [2])) were 101 to 1000 nM and more than 20000 nM, respectively.
For the compound `CC(O)(CNC(=O)c1cc(NC2CCNCC2)ncn1)CN1CCc2ccccc2C1` (stereo not drawn) [Compound 647], the IC50 on PRMT5/MEP50 fell in the range of 1000 to 10000 nM. Besides, the EC50 in assay [1] was more than 1000 nM; with Z-138 cell line (setting [2]), more than 5000 nM.
The matching figures for `CN1CCC(Nc2cc(C(=O)NCC(C)(O)CN3CCc4ccccc4C3)ncn2)CC1` (stereo not drawn) [Compound 648]: 1000 to 10000 nM, more than 1000 nM and more than 5000 nM.
The matching figures for `CC(=O)N1CCC(Nc2cc(C(=O)NCC(C)(O)CN3CCc4ccccc4C3)ncn2)CC1` (stereo not drawn) [Compound 649]: less than 100 nM, less than 100 nM and 1000 to 10000 nM.
The matching figures for `CC(O)(CNC(=O)c1cc(NC2CCN(C(=O)C3CC3)CC2)ncn1)CN1CCc2ccccc2C1` (stereo not drawn) [Compound 650]: less than 100 nM, less than 100 nM and 1000 to 10000 nM.
Consider `O=C(NCCCN1CCc2ccccc2C1)c1cc(NC2COC2)ncn1` [Compound 651], for which, at PRMT5/MEP50, the IC50 lay within 101 to 1000 nM. The EC50 is more than 1000 nM in assay [1] and more than 5000 nM in the assay on Z-138 cell line (setting [2]).
The matching figures for `CC(=O)N1CC(Nc2cc(C(=O)NCCCN3CCc4ccccc4C3)ncn2)C1` [Compound 652]: less than 100 nM, 101 to 1000 nM and more than 5000 nM.
For the compound `CC(=O)N1CCC(Nc2cc(C(=O)NCCCN3CCc4ccccc4C3)ncn2)CC1` [Compound 653], at PRMT5/MEP50, the IC50 is less than 100 nM. The results for the EC50 (in assay [1]; with Z-138 cell line (setting [2])) were less than 100 nM and 1000 to 10000 nM, respectively.
As for `CC(=O)N1CCC(Nc2cc(C(=O)NCCCN3CCc4ccccc4C3)ccn2)CC1` [Compound 654], the IC50 at PRMT5/MEP50 was less than 100 nM. For the same compound, the results for the EC50 (in assay [1]; in the assay on Z-138 cell line (setting [2])) were less than 100 nM and 1000 to 10000 nM, respectively.
On to `CC(=O)N1CC(Nc2cc(C(=O)NCC(F)CN3CCc4ccccc4C3)ncn2)C1` (stereo not drawn) [Compound 655], for which, at PRMT5/MEP50, the IC50 lay in the range of 101 to 1000 nM. In addition, the EC50 in assay [1] was 101 to 1000 nM; in the assay on Z-138 cell line (setting [2]), more than 5000 nM.
On to `CC(=O)N1CCC(Nc2cc(C(=O)NCC(F)CN3CCc4ccccc4C3)ncn2)CC1` (stereo not drawn) [Compound 656], for which the IC50 at PRMT5/MEP50 lay in the range of 101 to 1000 nM. Also, the EC50 was 101 to 1000 nM in assay [1] and more than 5000 nM with Z-138 cell line (setting [2]).
Turning to `CC(CNC(=O)c1cc(NC2COC2)ncn1)CN1CCc2ccccc2C1` (stereo not drawn) [Compound 657], at PRMT5/MEP50, the IC50 was less than 100 nM. Further, the EC50 in assay [1] was less than 100 nM; with Z-138 cell line (setting [2]) it was more than 5000 nM.
Consider `CC(=O)N1CCC(Nc2cc(C(=O)NCC(C)CN3CCc4ccccc4C3)ncn2)CC1` (stereo not drawn) [Compound 658], for which, at PRMT5/MEP50, the IC50 was less than 100 nM. The EC50 in assay [1] is less than 100 nM; in the assay with Z-138 cell line (setting [2]), 101 to 1000 nM.

Usually IC50 stands for the midpoint of a concentration-inhibition curve.
